According to patent US7151105B2, “Inhibitors of Hepatitis C virus RNA-dependent RNA polymerase, and compositions and treatments using the same” (Agouron Pharmaceuticals, Inc., priority 2004, dated 2006):

Molecular target: T1, Recombinant HCV polymerase (Hepatitis C virus genotype 1b, UniProt P26663)
T1 construct: Recombinant HCV polymerase was tested for its ability to perform primer/template-directed transcription
Assay: biochemical
Conditions: inhibition of polymerase-directed transcription; 30 min at 30° C; 30 nM enzyme; cpm data in triplicate
Description: The compounds described herein were tested for activity with HCV polymerase. Recombinant HCV polymerase was tested for its ability to perform primer/template-directed transcription in assays that contained 30 mM tris-HCl pH 7.2, 10 mM MgCl2, 20 mM NaCl, 1 mM Dithiothreitol (DTT), 0.05% Tween-20, 1% glycerol, 5 pmoles biotin-dG12 (primer), 0.5 pmoles poly(rC)300 (template), 1 μM GTP, 0.1–0.3 uCi α-^32P-GTP, and 2.5 pmoles (0.15 μg) HCV polymerase protein in a final volume of 75 μL. Reactions were initiated by addition of enzyme and incubated 30 minutes at 30° C. Reactions were stopped by addition of 33 mM EDTA, and polynucleotide products were collected by filtration through Diethylaminoethyl (DE) Filtermat papers (Wallac). Unincorporated triphosphate was removed by washing the filters with 5% dibasic sodium phosphate. The filters were counted in a Packard Tri-Lux Microbeta scintillation counter (Packard Bioscience, Meriden, Conn.). Compounds to be tested were added at various concentrations, e.g., 1 μm to 50 μm, from stocks in 10% DMSO-water (final DMSO is 1% in reaction).
IC50 values were estimated from the primary cpm data (collected in triplicate) using the formula: cpm (I)=cpm (no inhibitor)(1−([I]/([I]+IC50))). […] A percent inhibition value is expressed for a compound where it was impractical to calculate an IC50 value with available data.

T1 sequence (P26663 2420-3010): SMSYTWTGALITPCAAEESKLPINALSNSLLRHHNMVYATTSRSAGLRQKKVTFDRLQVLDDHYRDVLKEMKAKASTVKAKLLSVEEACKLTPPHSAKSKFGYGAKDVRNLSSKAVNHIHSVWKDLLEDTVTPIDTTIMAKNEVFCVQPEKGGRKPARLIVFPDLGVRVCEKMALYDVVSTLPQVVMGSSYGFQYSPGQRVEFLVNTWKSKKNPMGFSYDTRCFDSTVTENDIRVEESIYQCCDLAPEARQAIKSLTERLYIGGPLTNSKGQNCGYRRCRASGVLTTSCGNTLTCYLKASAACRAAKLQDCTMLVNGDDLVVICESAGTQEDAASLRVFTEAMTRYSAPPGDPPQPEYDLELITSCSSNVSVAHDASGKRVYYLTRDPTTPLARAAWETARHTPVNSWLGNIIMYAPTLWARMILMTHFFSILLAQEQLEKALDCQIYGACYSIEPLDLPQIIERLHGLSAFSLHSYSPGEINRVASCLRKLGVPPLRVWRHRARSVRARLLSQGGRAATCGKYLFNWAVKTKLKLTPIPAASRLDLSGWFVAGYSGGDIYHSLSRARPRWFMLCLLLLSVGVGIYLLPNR

| Compound | IC50 [nM] |
| --- | --- |
| COC(=O)c1ccc(CCC2(C3CCCC3)CC(=O)CC(=O)O2)cc1Cl (stereo not drawn) [B(7)] | 7000 |
| Cc1cc(C)n2nc(CC3=C(O)CC(CCc4ccc(O)c(C(F)(F)F)c4)(C4CCCC4)OC3=O)nc2n1 (stereo not drawn) [A(28), 6-Cyclopentyl-3-[(5,7-dimethyl[1,2,4]triazolo[1,5-a]pyrimidin-2-yl)methyl]-4-hydroxy-6-{2-[4-hydroxy-3-(trifluoromethyl)phenyl]ethyl}-5,6dihydro-2H-pyran-2-one] | 2 |
| CCOc1cnc(CC)cc1CCC1(C2CCCC2)CC(O)=C(Cc2nc3nc(C)cc(C)n3n2)C(=O)O1 (stereo not drawn) [A(27), 6-Cyclopentyl-3-[(5,7-dimethyl[1,2,4]triazolo[1,5-a]pyrimidin-2-yl)methyl]-6-[2-(5-ethoxy-2-ethylpyridin-4-yl)ethyl]-4-hydroxy-5,6-dihydro-2H-pyran-2-one] | 3 |
| COc1cc(O)c(C(C)=O)cc1CCC1(C2CCCC2)CC(O)=C(Cc2nc3nc(C)cc(C)n3n2)C(=O)O1 (stereo not drawn) [A(98), 6-[2-(5-Acetyl-4-hydroxy-2-methoxyphenyl)ethyl]-cyclopentyl-3-[(5,7-dimethyl[1,2,4]triazolo[1,5-a]pyrimidin-2-yl)methyl]-4-hydroxy-5,6-dihydro-2H-pyran-2-one] | 11 |
| CS(=O)(=O)c1ccc(CCC2(C3CCCC3)CC(=O)CC(=O)O2)cc1F (stereo not drawn) [A(63), 6-Cyclopentyl-6-{2-[3-fluoro-4-(methylsulfonyl)phenyl]ethyl}dihydro-2H-pyran-2,4(3H)-dione] | 18500 |
| Cc1cc(C)n2nc(CC3=C(O)CC(CCc4ccc(C(=O)O)c(F)c4)(C4CCCC4)OC3=O)nc2n1 (stereo not drawn) [B(11), 4-(2-{2-Cyclopentyl-5-[(5,7-dimethyl[1,2,4]triazolo[1,5-a]pyrimidin-2-yl)methyl]-4-hydroxy-6-oxo-3,6dihydro-2H-pyran-2-yl}ethyl)-2-fluorobenzoic acid] | 260 |
| CCc1cc(CCC2(C3CCCC3)CC(O)=C(Cc3nc4nc(C)cc(C)n4n3)C(=O)O2)ccc1OCCN(C)C(=O)OC(C)(C)C (stereo not drawn) [A(69), tert-Butyl 2-[4-(2-{2-cyclopentyl-5-[(5,7-dimethyl[1,2,4]triazolo[1,5-a]pyrimidin-2-yl)methyl]-4-hydroxy-6-oxo-3,6-dihydro-2H-pyran-2-yl}ethyl)2-ethylphenoxy]ethyl(methyl)carbamate] | 15 |
| COc1cc(OC)c(CCC2(C3CCCC3)CC(=O)C(Sc3nc(N)nc4nc[nH]c34)C(=O)O2)cc1Cl (stereo not drawn) [B(21), 3-[(2-Amino-7H-purin-6-yl)thio]-6-[2-(5-chloro-2,4-dimethoxyphenyl)ethyl]-6-cyclopentyldihydro-2H-pyran-2,4(3H)-dione] | 178 |
| COc1cc(OC)c(CCC2(C3CCCC3)CC(O)=C(Cc3nc(-c4cnccn4)nn3C)C(=O)O2)cc1Cl (stereo not drawn) [B(15), 6-[2-(5-Chloro-2,4-dimethoxyphenyl)ethyl]-6-cyclopentyl-4-hydroxy-3-[(1-methyl-3-pyrazin-2-yl-1H-1,2,4-triazol-5-yl)methyl]-5,6-dihydro-2H-pyran-2-one] | 19 |
| Cc1nn(C)c(Cl)c1CC1=C(O)CC(CCc2ccc(C(C)(C)C#N)c(F)c2)(C2CCCC2)OC1=O (stereo not drawn) [A(96), 2-[4-(2-{5-[(5-Chloro-1,3-dimethyl-1H-pyrazol-4-yl)methyl]-2-cyclopentyl-4-hydroxy-6-oxo-3,6-dihydro-2H-pyran-2-yl}ethyl)-2-fluorophenyl]-2-methylpropanenitrile] | 6 |
| CCc1cc(CCC2(C3CCCC3)CC(O)=C(Cc3nc4nc(C)cc(C)n4n3)C(=O)O2)ccc1NS(C)(=O)=O (stereo not drawn) [A(104), N-[4-(2-{2-cyclopentyl-5-[(5,7-dimethyl[1,2,4]triazolo[1,5-a]pyrimidin-2-yl)methyl]-4-hydroxy-6-oxo-3,6dihydro-2H-pyran-2-yl}ethyl)-2-ethylphenyl]methanesulfonamide] | 6 |
| CCn1cc(CC2=C(O)CC(CCc3ccc(C(C)(C)C#N)c(F)c3)(C3CCCC3)OC2=O)cn1 (stereo not drawn) [A(85), 2-[4-(2-{2-Cyclopentyl-5-[(1-ethyl-1H-pyrazol-4-yl)methyl]-4-hydroxy-6-oxo-3,6-dihydro-2H-pyran-2-yl}ethyl)-2-fluorophenyl]-2-methylpropanenitrile] | 83 |
| CCc1cc(CCC2(C3CCCC3)CC(O)=C(Cc3nc4nc(C)cc(C)n4n3)C(=O)O2)ccc1Oc1nccs1 (stereo not drawn) [A(122), 6-Cyclopentyl-3-[(5,7-dimethyl[1,2,4]triazolo[1,5-a]pyrimidin-2-yl)methyl]-6-{2-[3ethyl-4-(1,3thiazol-2-yloxy)phenyl]ethyl}-4hydroxy-5,6dihydro-2H-pyran-2-one] | 4 |
| Cc1cnc2nc(CC3=C(O)CC(CCc4cc(CC(F)(F)F)nc(CC(F)(F)F)c4)(C4CCCC4)OC3=O)nn2c1 (stereo not drawn) [A(48), 6-{2-[2,6-Bis(2,2,2-trifluoroethyl)pyridin-4-yl]ethyl}-6-cyclopentyl-4-hydroxy-3-[(6-methyl[1,2,4]triazolo[1,5-a]pyrimidin-2-yl)methyl]-5,6-dihydro-2H-pyran-2-one] | 23 |
| CCOc1cc(O)c(CC)cc1CCC1(C2CCCC2)CC(O)=C(Cc2nc3nc(C)cc(C)n3n2)C(=O)O1 (single isomer, unassigned) [A(31), 6-Cyclopentyl-3-[(5,7-dimethyl[1,2,4]triazolo[1,5-a]pyrimidin-2-yl)methyl]-6-[2-(2-ethoxy-5-ethyl-4-hydroxyphenyl)ethyl]-4-hydroxy-5,6-dihydro-2H-pyran-2-one] | 6 |
| CCc1cc(CCC2(C3CCCC3)CC(O)=C(Cc3nc4nc(C)cc(C)n4n3)C(=O)O2)ccc1OCCNC(=O)OC(C)(C)C (stereo not drawn) [A(70), tert-Butyl 2-[4-(2-{2-cyclopentyl-5-[(5,7-dimethyl[1,2,4]triazolo[1,5-a]pyrimidin-2-yl)methyl]-4-hydroxy-6-oxo-3,6-dihydro-2H-pyran-2-yl}ethyl)-2-ethylphenoxy]ethylcarbamate] | 14 |

Now from value to compound:

| IC50 [nM] | Compound |
| --- | --- |
| 7 | CCc1cc(CCC2(C3CCCC3)CC(O)=C(Cc3nc4ncc(C)cn4n3)C(=O)O2)ccc1Cn1cccn1 (stereo not drawn) [A(113), 6-Cyclopentyl-6-{2-[3-ethyl-4-(1H-pyrazol-1-ylmethyl)phenyl]ethyl}-4-hydroxy-3-[(6-methyl[1,2,4]triazolo[1,5-a]pyrimidin-2-yl)methyl]-5,6-dihydro-2H-pyran-2-one] |
| 10 | CCc1cc(CCC2(C3CCCC3)CC(O)=C(Cc3nc4nc(C)cc(C)n4n3)C(=O)O2)ccc1CN(C)C (racemic) [A(119), 6-cyclopentyl-6-(2-{4-[(dimethylamino)methyl]-3-ethylphenyl}ethyl)-3-[(5,7-dimethyl[1,2,4]triazolo[1,5-a]pyrimidin-2-yl)methyl]-4-hydroxy-5,6-dihydro-2H-pyran-2-one] |
| 5 | CCc1cc(CCC2(C3CCCC3)CC(O)=C(Cc3nc4nc(C)cc(C)n4n3)C(=O)O2)ccc1CNC(C)=O (single isomer, unassigned; enantiomer 2) [A(133), Enantiomer 2 of N-[4-(2-{2-cyclopentyl-5-[(5,7-dimethyl[1,2,4]triazolo[1,5-a]pyrimidin-2-yl)methyl]-4-hydroxy-6-oxo-3,6-dihydro-2H-pyran-2-ylethyl)-2-ethylbenzyl]acetamide] |
| 4 | CCc1cc(CCC2(C3CCCC3)CC(O)=C(Cc3nc4ncc(C)cn4n3)C(=O)O2)ccc1NS(C)(=O)=O (stereo not drawn) [A(106), N-[4-(2-{2-cyclopentyl-4-hydroxy-5-[(6-methyl[1,2,4]triazolo[1,5-a]pyrimidin-2-yl)methyl]-6-oxo-3,6-dihydro-2H-pyran-2-yl}ethyl)-2-ethylphenyl]methanesulfonamide] |
| 4 | CCc1cc(CCC2(C3CCCC3)CC(O)=C(Cc3nc4nc(C)cc(C)n4n3)C(=O)O2)ccc1CNS(C)(=O)=O (single isomer, unassigned; enantiomer 1) [A(129), Enantiomer 1 of N-[4-(2-{2-cyclopentyl-5-[(5,7-dimethyl[1,2,4]triazolo[1,5-a]pyrimidin-2-yl)methyl]-4-hydroxy-6-oxo-3,6-dihydro-2H-pyran-2-yl}ethyl)-2-ethylbenzyl]methanesulfonamide] |
| 5 | CCc1cc(CCC2(C3CCCC3)CC(O)=C(Cc3nc4nc(C)cc(C)n4n3)C(=O)O2)ccc1CO (single isomer, unassigned; enantiomer 1) [A(114), Enantiomer 1 of 6-cyclopentyl-3-[(5,7-dimethyl[1,2,4]triazolo[1,5-a]pyrimidin-2-yl)methyl]-6-{2-[3-ethyl-4-(hydroxymethyl)phenyl]ethyl}4-hydroxy-5,6dihydro-2H-pyran-2-one] |
| 7 | CCc1cc(CCC2(C3CCCC3)CC(O)=C(Cc3nc4nc(C)cc(C)n4n3)C(=O)O2)ccc1Cn1cccn1 (stereo not drawn) [A(112), 6-Cyclopentyl-3-[(5,7-dimethyl[1,2,4]triazolo[1,5-a]pyrimidin-2-yl)methyl]-6-{2-[3-ethyl-4-(1H-pyrazol-1-ylmethyl)phenyl]ethyl}-4-hydroxy-5,6-dihydro-2H-pyran-2-one] |
| 4 | CCc1cc(CCC2(C3CCCC3)CC(O)=C(Cc3nc4nc(C)cc(C)n4n3)C(=O)O2)ccc1-c1ncco1 (single isomer, unassigned; enantiomer 2) [A(139), Enantiomer 2 of 6-Cyclopentyl-3-[(5,7-dimethyl[1,2,4]triazolo[1,5-a]pyrimidin-2-yl)methyl]-6-{2-[3-ethyl-4-(1,3-oxazol-2-yl)phenyl]ethyl}-4-hydroxy-5,6-dihydro-2H-pyran-2-one] |
